# Experimental data from PMC11620503 (Antimicrobial Agents and Chemotherapy, 2024).
# How the values were obtained:
# Assay in all cases: MIC, broth microdilution
# [1] = test system: E. coli CDC-137 (NDM-6), PBP3 mutations; type: cell-based; conditions: Escherichia coli, fixed BLI concentration (μg/mL) in parentheses in label
# [2] = test system: 207 Enterobacterales including carbapenem-resistant isolates; type: cell-based
# [3] = test system: 55 isolates of A. baumannii; type: cell-based, Acinetobacter baumannii; conditions: Acinetobacter baumannii (55)
# [4] = test system: serine-carbapenemase-producing isolates (Enterobacterales); type: cell-based; conditions: Enterobacterales with serine-carbapenemases (80)
# [5] = test system: MEM-nonsusceptible Enterobacterales with serine-carbapenemases; type: cell-based; conditions: MEM-nonsusceptible Enterobacterales with serine-carbapenemases (58)
# [6] = test system: MEM-nonsusceptible Enterobacterales; type: cell-based; conditions: MEM-nonsusceptible Enterobacterales (127), cefiderocol 126 isolates
# [7] = test system: E. coli CDC-149 (NDM-7), PBP3 mutations; type: cell-based; conditions: Escherichia coli
# [8] = All Enterobacterales (207), cefiderocol 205 isolates, CLSI breakpoints, marked c: breakpoints for β-lactam alone, tigecycline: FDA breakpoints
# [9] = CLSI breakpoints, marked c: breakpoints for β-lactam alone
# [10] = fixed concentration (μg/mL) in label
# [11] = fixed concentration (μg/mL) in label, read-out: MIC50
# [12] = fixed concentration (μg/mL) in label, read-out: MIC90
# [13] = CLSI breakpoints, marked c: breakpoints for β-lactam alone, tigecycline: FDA breakpoints
smiles,measurement,setting,value
"CC(C)(O/N=C(\C(=O)N[C@@H]1C(=O)N2C(C(=O)[O-])=C(C[N+]3(CCNC(=O)c4ccc(O)c(O)c4Cl)CCCC3)CS[C@H]12)c1csc(N)n1)C(=O)O [FDC, cefiderocol]",MIC,[1],2 µg/mL
same,CLSI MIC interpretation I (intermediate),[2]; [8],2%
same,CLSI MIC interpretation R (resistant),[2]; [8],0.5%
same,CLSI MIC interpretation S (susceptible),[2]; [8],97.6%
same,MIC50,[2]; read-out: MIC50,0.5 µg/mL
same,MIC90,[2]; read-out: MIC90,2 µg/mL
same,CLSI MIC interpretation I (intermediate),[3]; [9],3.6%
same,CLSI MIC interpretation R (resistant),[3]; [9],1.8%
same,CLSI MIC interpretation S (susceptible),[3]; [9],94.5%
same,MIC Range,[3]; [10],≤0.06 to 16 µg/mL
same,MIC50,[3]; [11],0.5 µg/mL
same,MIC90,[3]; [12],4 µg/mL
same,CLSI MIC interpretation I (intermediate),[4]; [13],0%
same,CLSI MIC interpretation R (resistant),[4]; [13],0%
same,CLSI MIC interpretation S (susceptible),[4]; [13],100%
same,MIC Range,[4]; [10],≤0.06 to 4 µg/mL
same,MIC50,[4]; [11],0.25 µg/mL
same,MIC90,[4]; [12],2 µg/mL
same,CLSI MIC interpretation I (intermediate),[5]; [13],0%
same,CLSI MIC interpretation R (resistant),[5]; [13],0%
same,CLSI MIC interpretation S (susceptible),[5]; [13],100%
same,MIC Range,[5]; [10],≤0.06 to 4 µg/mL
same,MIC50,[5]; [11],0.5 µg/mL
same,MIC90,[5]; [12],2 µg/mL
same,CLSI MIC interpretation I (intermediate),[6]; [13],3.2%
same,CLSI MIC interpretation R (resistant),[6]; [13],0.8%
same,CLSI MIC interpretation S (susceptible),[6]; [13],96%
same,MIC50,[6]; [11],1 µg/mL
same,MIC90,[6]; [12],2 µg/mL
same,MIC,[7],16 µg/mL
